Results published in article PMC9866693, “Novel Benzimidazole Derived Imine Ligand and Its Co(III) and Cu(II) Complexes as Anticancer Agents: Chemical Synthesis, DFT Studies, In Vitro and In Vivo Biological Investigations” (Pharmaceuticals, 2023).

Key:
[1] = system: SIHA cell line; assay: MTT anti-proliferative assay, SIHA; format: cell-based; conditions: Homo sapiens, 48 h, incubated for 2 days, read-out: IC50 against SIHA
Method: (§1) In vitro anti-proliferative assays of the cultured cell lines A549, EAC, SIHA and NIH3T3, under laboratory conditions, were performed. The cells were developed in Dulbecco’s Modified Eagle Medium (DMEM) (Gibco-Invitrogen, Austin, TX, USA), in addition with heat-inactivated Foetel Bovine Serum (Invitrogen, Waltham, MA, USA), Pen Strep and followed by the addition of NaHCO3 (0.40%). The resulting component was incubated at 37 °C and maintained at 97% humidity and 90% air atmosphere. Exactly 10 µM of the synthesized ligand HBMF and its complexes (C1–C4), prepared using DMSO as a solvent, was used initially to assess their cytotoxicity and anti-proliferative activity in vitro using the MTT assay as described previously. 5-fluorouracil was used as a positive control and an appropriate vehicle control.
(§2) The various cell lines, such as A549, EAC, SIHA and NI3T3, were used initially to investigate the extent of preliminary proliferation against the MTT assay. The synthesized ligand, the complexes, and 5-fluorouracil were treated with all four cell lines as mentioned above. The cells were treated in the absence and presence of the ligand and its complexes and were incubated for 2 days. The effect of the proliferating cells and the color change was investigated by adding 5 mg/mL of 3-(4,5-Dimethylthiazol-2-yl)-2,5-Diphenyltetrazolium Bromide (MTT) reagent.

[2] = system: Ehrlich–Lettre ascites carcinoma (EAC) cell line; assay: MTT anti-proliferative assay, EAC; format: cell-based; conditions: 48 h, incubated for 2 days, read-out: IC50 against EAC
Method: as §1, §2

[3] = system: A549 cell line; assay: MTT anti-proliferative assay, A549; format: cell-based; conditions: Homo sapiens, A549, 48 h, incubated for 2 days, read-out: IC50 against A549
Method: as §1, §2

[4] = system: NIH3T3 cell line; assay: MTT anti-proliferative assay, NIH3T3; format: cell-based; conditions: Mus musculus, NIH3T3, 48 h, incubated for 2 days, read-out: IC50 against NIH3T3
Method: as §1, §2

[5] = Solubility and stability observations; format: physicochemical
Source text: Scheme 1 depicts the general route for the preparation of HBMF. Neutralization of the aqueous solution of 2-(aminomethyl) benzimidazole hydrochloride (0.100 g, 0.4543 mmol) was done in the first step of synthesis using an aqueous solution of potassium carbonate (0.0753 g, 0.5451 mmol) and then mixed with a methanolic solution of 5-fluorosalicyladihyde (0.0630 g, 0.4543 mmol). The resulting mixture was stirred at room temperature using a magnetic stirrer. The yellow precipitate obtained was filtered off and washed with water followed by petroleum ether and dried under vacuum. The completion of the reaction was monitored on pre-coated silica gel plates by the thin layer chromatography (TLC) method using chloroform and methanol as the solvent system in the ratio (9:1). The Schiff base thus obtained was insoluble in water but soluble in methanol, DMSO, etc. Elemental analysis for HBMF (C15H11FN3O): Calculated (%): C, 62.91; H, 4.33; F, 7.05; N, 14.59; O, 5.90. Found (%): C, 62.95; H, 4.36; F, 7.09; N, 14.65; O, 5.94. ^1H NMR (CDCl3, 400 MHz) ð: 5.09 [C1] (s, 2H, CH2); 6.86 [C7 and C6] (dd, 2H, Ar-H); 7.04–7.06 [C12 and C13] (t, 1H, Ar-H); 7.25 [C4] (d, 2H, Ar-H); 7.57 [C11] (d, 1H, Ar-H); 7.58 [C14] […]
Millimolar solutions of all the prepared metal complexes (C1-0.599, C2-0.615, C3-0.595, and C4-0.629 […]) were prepared using DMSO solvent and the conductance was measured (Table S1). […]

| IC50 [2] | IC50 [3] | Solubility in methanol, DMSO ([5]; methanol, DMSO, etc.) | Solubility in water ([5]; water) | Structure (SMILES) | IC50 [1] | IC50 [4] |
| --- | --- | --- | --- | --- | --- | --- |
| 6.1 ± 1.8 µM | 7.2 ± 0.5 µM |  |  | O=c1[nH]cc(F)c(=O)[nH]1 [5‐FU, 5-fluorouracil, reference compound] | 6.2 ± 0.7 µM | 7.8 µM |
| 48 ± 0.3 µM | 54.21 ± 0.4 µM | soluble | insoluble | Oc1ccc(F)cc1/C=N/Cc1nc2ccccc2[nH]1 [HBMF, 2-((E)-((1H-benzo[d]-2-yl)methylimino)methyl)-4-fluorophenol] | 53.4 ± 0.7 µM | 52.6 ± 0.4 µM |
